Values of other authors as cited in patent publication US20160102058A1, “FLUORO-PERHEXILINE COMPOUNDS AND THEIR THERAPEUTIC USE” (THE UNIVERSITY COURT OF THE UNIVERSITY OF ABERDEEN, priority 2013, published 2016).

Columns and labels:
[1] = elderly patients with aortic stenosis unsuitable for valve replacement; cited from earlier work
[2] = EM versus PM; cited from earlier work

C1CCC(C(CC2CCCCN2)C2CCCCC2)CC1 (centres unmarked) [Perhexiline, 2-(2,2-dicyclohexylethyl)piperidine]
patients with clear symptomatic improvement [1]: 13 out of 15
difference in perhexiline clearance and required dosage between EM and PM patients [2]: ~100 fold
